Test results taken from patent EP0069659A1, “Medicine containing the reaction product of a carboxylic acid and a basic amino acid” (CHANY, Charles, priority 1981, dated 1983).

Experiments:
[1] = system: virus de l'encéphalomyocardite de la souris (EMC) de la souche Mengo; experiment: Antiviral protection of mice against the lethal effect of 100 DL50 of EMC virus; conditions: for survie lorsqu'on administre aussi de l'interféron: given together with interféron; for survie relevée au moment où la mortalité cesse dans la série d'animaux témoins: propionate d'arginine 0,252 mg/g, hexanoate d'arginine 0,29 mg/g, virus-only controls 5 sur 30
Text: Dans ces expériences, on met en évidence l'activité antivirale contre l'effet léthal de 100 DL50 du virus de l'encéphalomyocardite.
Les animaux de laboratoire utilisés sont des souris du type "Swiss" provenant d'un élevage propre aux Inventeurs.
Le virus employé est celui de l'encéphalomyocar- dite de la souris (EMC) de la souche Mengo cultivée sur des cellules murines L 929.
Le titre des suspensions de virus est estimé par la "méthode des plages" en utilisant toujours des cellules murines L 929. On admet que 5 unités (UFP) formant des plages, correspondent à une dose léthale DL50.
Le virus est inoculé par voie intrapéritonéale.
On réalise également, à titre de comparaison, les expériences suivantes : • - prétraitement des animaux par le butyrate de sodium avant inoculation du virus EMC, • - traitement par le butyrate d'arginine ou de lysine simultanément à l'injection du virus.
Des groupes de souris témoin sont traités par le virus seul et le solvant (milieu isotonique) seul.
et on a administré pour chaque expérience 0,5 ml de ces solutions par souris de 25 g.
L'interféron a été administré à raison de 20.000 à 25.000 unités internationales par souris par voie intrapéritonéale sous un volume de 0,5 ml et l'immunostimulant, à savoir le corynébacterium parvum, souche Mérieux, a été injecté à l'animal par voie intrapéritonéale à raison de 200 µg/0,1 ml/souris.
L'action antivirale a été étudiée dans les mêmes conditions que plus haut.

[2] = system: mutant du sarcome de Crocker 180 TG; experiment: Antitumour activity in mice grafted intraperitoneally with ascitic sarcoma (nine experiments, figures 1 to 9); assay type: in vivo, souris Swiss
Method: La tumeur utilisée dans les expériences qui suivent est un mutant du sarcome de Crocker 180 TG qui résiste au traitement par les dérivés puriques.
Les animaux d'expériences sont toujours des souris Swiss de l'élevage susmentionné.
On leur inocule le sarcome par voie intrapéritonéale en utilisant une suspension de 10^6 cellules/0,5 ml.. La quantité inoculée est de 0,5 ml.
Les expériences ont été réalisées en utilisant : • - le butyrate d'arginine ou de lysine, • - l'interféron, • - le corynébacterium parvum (ou CP) de souche Mérieux.
Le butyrate d'arginine a été mis en oeuvre sous la forme et en quantité analogue à ce qui est indiqué plus haut pour l'activité antivirale.
Le CP est administré dans les expériences qui suivent sous la forme d'une dose unique appliquée au moment de la greffe ou trois jours après et se présentant sous la forme d'ampoules de 2 ml comprenant 4 mg en poids sec de germes tués par le formol et la chaleur; on injecte 0,1 ml de cette substance à la souris par voie intrapéritonéale.
On a procédé à neuf expériences indépendantes portant chacune sur plusieurs groupes de 15 animaux.
Dans la première de ces expériences (groupe témoin), on a greffé aux animaux la tumeur seule.
Dans les deuxième et troisième expériences, le butyrate d'amino-acide basique a été appliqué par voie intrapéritonéale à raison de 0,5 ml d'une solution 50 fois millimolaire par souris (c'est-à-dire à raison de respectivement 0,28 mg et 0,24 mg par g de souris), trois fois par semaine (à 48 heures d'intervalle) pendant trois semaines.
Dans la quatrième expérience, on a appliqué l'interféron à raison de 20.000 à 50.000 U.I. sous un volume de 0,5 ml administré à l'animal trois fois par semaine (à 48 heures d'intervalle) pendant trois semaines.
Dans la cinquième expérience, on a appliqué le CP en une dose unique de 200 microgrammes/0,1 ml par animal, administrée par voie intrapéritonéale en même temps ou trois jours après la greffe cellulaire.
Dans les sixième à neuvième expériences, on a appliqué, suivant le cas, le butyrate d'amino-acide basique, l'interféron et/ou le CP aux mêmes doses, au même rythme et aux mêmes moments que lorsque ces produits étaient appliqués seuls dans les expériences précédentes.
Ces histogrammes montrent, en fonction du temps (nombre de jours T), le nombre N d'animaux survivants et, parmi ces animaux survivants, le nombre d'animaux portant des tumeurs décelables.
Ainsi, le nombre d'animaux survivants est porté, pour un jour donné, en ordonnée sous la forme d'une colonne figurant le nombre d'animaux et à l'intérieur de laquelle on matérialise par des hachures le nombre d'animaux porteurs de tumeurs.

[3] = 45 animals at start, butyrate de lysine 0,24 mg/g i.p. 3 times a week for 3 weeks

In the case of propionate d'arginine, the “survie lorsqu'on administre aussi de l'interféron” value [1] is reported as “considérablement augmentée” and the “survie relevée au moment où la mortalité cesse dans la série d'animaux témoins” value [1] is reported as 18 sur 30.

In the case of butyrate de lysine, the “animaux restants au bout de 44 jours” value [2, 3] is reported as 2, the “porteurs de tumeur parmi les animaux restants au bout de 44 jours” value [2, 3] is reported as 1 and the “animaux porteurs de tumeurs au 10e jour” value ([2]; butyrate 0,5 ml of 50 mM i.p. 3 times a week for 3 weeks (0,28 or 0,24 mg/g), interféron 20.000 à 50.000 U.I. 3 times a week for 3 weeks, CP single dose 200 microgrammes i.p.) is reported as 32 sur 45. The “animaux survivants après 100 jours d'observation” value ([2]; same doses as E4, group sizes 45 to 75 animals, no control survives beyond day 28) was “un seul” and the effet protecteur ([1]; treatment given simultaneously with the injection of the virus) was “aucun effet protecteur”.

hexanoate d'arginine was tested, and the “survie lorsqu'on administre aussi de l'interféron” value [1] was “considérablement augmentée” and the “survie relevée au moment où la mortalité cesse dans la série d'animaux témoins” value [1] was 11 sur 30.
